From PubChem BioAssay (NCI)
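Grown in 96-well plates, cells were treated for 48 hours with each compound at five concentrations. Insufficient inhibition: endpoint recorded as highest concentration tested. Definition used: TGI = concentration required for complete inhibition of growth.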

Key:
Assay in all cases: growth of human tumour cells (NCI), 48 h
786-0 renal = system: 786-0 renal
A549 NSCLC = system: A549 NSCLC
ACHN renal = system: ACHN renal
CAKI-1 renal = system: CAKI-1 renal
CCRF-CEM leukemia = system: CCRF-CEM leukemia
COLO 205 colon = system: COLO 205 colon
DU-145 prostate = system: DU-145 prostate
EKVX NSCLC = system: EKVX NSCLC
HCC-2998 colon = system: HCC-2998 colon
HCT-116 colon = system: HCT-116 colon
HCT-15 colon = system: HCT-15 colon
HOP-62 NSCLC = system: HOP-62 NSCLC
HS 578T breast = system: HS 578T breast
HT29 colon = system: HT29 colon
IGROV1 ovarian = system: IGROV1 ovarian
K-562 leukemia = system: K-562 leukemia
KM12 colon = system: KM12 colon
LOX IMVI melanoma = system: LOX IMVI melanoma
M14 melanoma = system: M14 melanoma
MCF7 breast = system: MCF7 breast
MDA-MB-435 = system: MDA-MB-435
MDA-N = system: MDA-N
MOLT-4 leukemia = system: MOLT-4 leukemia
NCI-H23 lung = system: NCI-H23 lung
NCI-H460 lung = system: NCI-H460 lung
NCI-H522 lung = system: NCI-H522 lung
NCI/ADR-RES ovarian = system: NCI/ADR-RES ovarian
OVCAR-3 ovarian = system: OVCAR-3 ovarian
OVCAR-5 ovarian = system: OVCAR-5 ovarian
OVCAR-8 ovarian = system: OVCAR-8 ovarian
PC-3 prostate = system: PC-3 prostate
RPMI-8226 leukemia = system: RPMI-8226 leukemia
SF-268 CNS = system: SF-268 CNS
SF-295 CNS = system: SF-295 CNS
SF-539 CNS = system: SF-539 CNS
SK-MEL-2 melanoma = system: SK-MEL-2 melanoma
SK-MEL-28 melanoma = system: SK-MEL-28 melanoma
SK-MEL-5 melanoma = system: SK-MEL-5 melanoma
SN12C renal = system: SN12C renal
SNB-19 CNS = system: SNB-19 CNS
SNB-75 CNS = system: SNB-75 CNS
SR leukemia = system: SR leukemia
SW-620 colon = system: SW-620 colon
T-47D breast = system: T-47D breast
TK-10 renal = system: TK-10 renal
UACC-257 melanoma = system: UACC-257 melanoma
UACC-62 melanoma = system: UACC-62 melanoma
UO-31 renal = system: UO-31 renal

COc1cccc(C2c3cc4c(cc3OC(N3CCOCC3)C2C)OCO4)c1OC (stereo not drawn)
TGI (786-0 renal): 52.7 µM | TGI (A549 NSCLC): > 100 µM | TGI (ACHN renal): 70.9 µM | TGI (CAKI-1 renal): 5.36 µM | TGI (CCRF-CEM leukemia): 28.8 µM | TGI (COLO 205 colon): 28.2 µM | TGI (DU-145 prostate): 28.5 µM | TGI (EKVX NSCLC): > 100 µM | TGI (HCC-2998 colon): 22.8 µM | TGI (HCT-116 colon): 15.7 µM | TGI (HCT-15 colon): > 100 µM | TGI (HOP-62 NSCLC): 31.6 µM | TGI (HS 578T breast): 63.5 µM | TGI (HT29 colon): 15.8 µM | TGI (IGROV1 ovarian): 31.2 µM | TGI (K-562 leukemia): 21.1 µM | TGI (KM12 colon): 36.2 µM | TGI (LOX IMVI melanoma): 12.6 µM | TGI (M14 melanoma): 29 µM | TGI (MCF7 breast): > 100 µM | TGI (MDA-MB-435): 33.8 µM | TGI (MDA-N): 46.9 µM | TGI (MOLT-4 leukemia): 20 µM | TGI (NCI-H23 lung): > 100 µM | TGI (NCI-H460 lung): 30.7 µM | TGI (NCI-H522 lung): 34.3 µM | TGI (NCI/ADR-RES ovarian): 29.7 µM | TGI (OVCAR-3 ovarian): 36.7 µM | TGI (OVCAR-5 ovarian): 43.6 µM | TGI (OVCAR-8 ovarian): > 100 µM | TGI (PC-3 prostate): 40.6 µM | TGI (RPMI-8226 leukemia): 24.1 µM | TGI (SF-268 CNS): 92.2 µM | TGI (SF-295 CNS): 32.9 µM | TGI (SF-539 CNS): 30.5 µM | TGI (SK-MEL-2 melanoma): 25.5 µM | TGI (SK-MEL-28 melanoma): 32 µM | TGI (SK-MEL-5 melanoma): 24.5 µM | TGI (SN12C renal): 48.4 µM | TGI (SNB-19 CNS): 24.2 µM | TGI (SNB-75 CNS): 37.2 µM | TGI (SR leukemia): 24.4 µM | TGI (SW-620 colon): > 100 µM | TGI (T-47D breast): 79.1 µM | TGI (TK-10 renal): > 100 µM | TGI (UACC-257 melanoma): 48.8 µM | TGI (UACC-62 melanoma): 85.5 µM | TGI (UO-31 renal): 33.6 µM
